{"source": "patent EP0346791B1", "about": "“1,2-diarylethylamines for treatment of neurotoxic injury” (priority 1988, dated 1989)", "key": {"PCP receptors": {"target": "PCP receptors", "format": "binding", "conditions": "1 nM 3H-TCP, whole rat brain membranes, 1 hour incubation; value ± SEM; read-out: Ki apparent"}, "Male Sprague-Dawley rats": {"test_system": "Male Sprague-Dawley rats", "assay": "Behavioral assay (stereotyped behavior, PCP rating scale)", "format": "in vivo", "conditions": "95% confidence intervals in parenthesis; for ED50: Rattus norvegicus", "protocol": "Nine compounds were tested in comparison with PCP and TCP by an in vivo assay which determined stereotypic behavior in rats treated with the compounds. Male Sprague-Dawley rats weighing 200 to 250 g were used in the behavioral experiments. Each rat was used only once. Rats were anesthetized lightly with ether before a 20-gauge needle was used to make a hole in the rat's skull for i.c.v. injection of drugs at a later date. These rats were allowed to recover for at least 1 day before being used in the behavioral assays. On the day of the experiment, rats were placed individually into plastic rat cages and allowed at least 1 hr to acclimate before testing. Drugs were administered to rats in a random, single-blind fashion.\nDose-response curves for each treatment were determined at the time of maximal behavioral effect. Peak effects were found 5 min after i.c.v. administration of PCP (25-20000 nmol/rat). […] A rating of 5 in the PCP-rating scale was considered as complete stereotyped behavior, that is, a 100% response. At least 21 rats (at least seven rats/dose) were used to determine each dose-response curve and ED₅₀ values. ED₅₀ values and dose-response curves were evaluated using a computerized Finney assay [Statistical Methods In Biological Assays, 2nd Edn., Hatner Pub. Co., New York (1964)].\nThe ability of the tested compounds to induce stereotyped behavior was assessed at 2.5, 5 and 10 minutes and thereafter every 5 min up to 1 hr after i.c.v., i.p., or s.c. administration."}, "hippocampal neurons [1]": {"test_system": "hippocampal neurons", "assay": "Chronic hypoxic insult assay (MTT neuronal survival)", "format": "cell-based, Sprague-Dawley rats", "conditions": "for Optical Density: 6 hours anaerobic chamber, then 2 hours normal O2, MTT 570 nm, ± SEM, untreated control 0.058, hypoxia alone 0.020; for Maximum protection of neurons from hypoxic insult was obtained with: concentration giving maximum protection", "protocol": "Compound Nos. 4 and 5 were tested for their ability to protect hippocampal neurons from hypoxia-induced cell death. Cultures of hippocampal neurons were prepared from embryonic day 17 Sprague-Dawley rats. The hippocampi were dissociated into a single cell suspension by incubation with 0.25% trypsin, […] DNase followed by gentle trituration through a Pasteur pipet. The cells were plated in a polylysine-coated 96-well plate and maintained in a chemically defined medium until use. The cells were grown for 2 to 3 weeks in 5% CO₂-in-air humidified environment at 36°C to establish a thick network of neuronal processes with numerous spontaneously active synapses. Exposure to hypoxic/anoxic environment was accomplished by placing the cultures in an anaerobic chamber, and flushing it with a mixture of 95% N₂+ 5% CO₂ gas to rapidly drop the O₂ tension to near zero. The O₂ tension was maintained at near zero using a disposable H₂ + CO₂ generator envelope with palladium catalyst. Compound No. 4 and Compound No. 5 were added to the culture medium prior to incubation in the anaerobic chamber and maintained there for 6 hours. Following 2 hours of exposure to normal O₂ tension, the cultures were processed for morphological and quantitive biochemical neuronal cell viability assays.\nThe neuronal survival assay utilized the compound MTT [(3-(4,5-dimethylthiazol-2-yl)-2,5-diphenyl tetrazolium bromide)], a pale yellow substrate that is cleaved by the mitochondrial enzyme succinate-dehydrogenase to yield a dark blue formazan product. This process requires active mitochondria, present only in live cells. Cultures of hippocampal neurons grown in 96-well plates were incubated with 1 mg/ml MTT at 36°C in a 10% CO₂-in-air incubator for 30-60 min. At the end of the incubation, a dark blue precipitate outlined only viable cells. The precipitate was then solubilized using 0.08 N HCl/isopropanol mixture and the absorbance measured with an ELISA plate reader (Dynatech MR600) using a test wavelength of 570 nm and a reference wavelength of 630 nm. The resulting optical density is directly proportional to the number of viable cells."}, "hippocampal neurons [2]": {"test_system": "hippocampal neurons", "assay": "Acute azide toxicity assay (MTT neuronal survival)", "format": "cell-based, Sprague-Dawley rats", "conditions": "10 µM sodium azide for 1 hour"}, "Male Mongolian gerbils": {"test_system": "Male Mongolian gerbils", "assay": "Forebrain ischemia assay (carotid occlusion, CA1 cell loss)", "format": "in vivo", "conditions": "30 mg/kg i.p. 30 minutes prior to carotid occlusion; 7 days; vs saline injected gerbils; Mann-Whitney U test p<0.01", "protocol": "Male Mongolian gerbils, 50-70 gm, were used as subjects. Compound No. 1 (30 mg/kg) was injected i.p. 30 minutes prior to carotid occlusion into 6 gerbils. In preparation for surgical procedures, the animals were lightly anesthetized with methoxyflurane and placed upside down on a heated pad with their snout within a nosecone. Nitrous oxide (70%): oxygen (30%) plus 0.5% halothane was circulated through the nosecone to provide continuous anesthesia throughout the surgical procedure. A midline incision was made in the neck and the carotid arteries were exposed. A length of suture thread was placed under each carotid. The thread was then tightened around each carotid and pressure applied to the thread to insure flow was occluded. Flow was occluded for 4-5 minutes and then the thread was removed. The carotids were visually inspected to confirm that reflow had occurred. The wound was then closed with autoclips and the gerbils allowed to recover. Following surgery, the gerbils were kept alive for 7 days. They were anesthetized with 100 mg/kg sodium pentobarbital and perfused transcardially with saline (with heparin) followed by buffered formalin. The brain was removed, trimmed and prepared for histological processing. Sections (10 microns) were stained with thionin. […]"}, "[3]": {"conditions": "sc, read-out: Stereotyped Behavior ED₅₀ s.c."}, "[4]": {"conditions": "ip, read-out: Stereotyped Behavior ED₅₀ i.p."}}, "note": "Read-outs that look alike come from different tables or passages of the source."}
{"compound": "Cc1cccc(C(Cc2ccccc2)N2CCCCC2)c1", "note": "(racemic) [Compound No. 29]", "values": [{"measurement": "Ki", "setting": "PCP receptors", "result": "110 ± 30", "unit": "nM"}]}
{"compound": "c1ccc(CC(c2cccs2)N2CCCCC2)cc1", "note": "(racemic) [Compound No. 5]", "values": [{"measurement": "ED50", "setting": "Male Sprague-Dawley rats; [3]", "result": 3.5, "unit": "mg/kg"}, {"measurement": "Optical Density", "setting": "hippocampal neurons [1]; Hypoxia + 10 µM compound", "result": "0.047 ± 0.01"}, {"measurement": "Maximum protection of neurons from hypoxic insult was obtained with", "setting": "hippocampal neurons [1]", "result": 10, "unit": "µM"}]}
{"compound": "Cc1ccc(C(Cc2ccccc2)N2CCCCC2)cc1", "note": "(racemic) [Compound No. 21]", "values": [{"measurement": "Ki", "setting": "PCP receptors", "result": "1800 ± 300", "unit": "nM"}]}
{"compound": "Fc1ccc(C(Cc2ccccc2)N2CCCCC2)cc1", "note": "(racemic) [Compound No. 27]", "values": [{"measurement": "Ki", "setting": "PCP receptors", "result": "220 ± 10", "unit": "nM"}]}
{"compound": "c1ccc(CC(c2ccco2)N2CCCCC2)cc1", "note": "(racemic) [Compound No. 30]", "values": [{"measurement": "Ki", "setting": "PCP receptors", "result": "400 ± 10", "unit": "nM"}]}
{"compound": "Clc1ccccc1C(Cc1ccccc1)N1CCCCC1", "note": "(racemic) [Compound No. 31]", "values": [{"measurement": "Ki", "setting": "PCP receptors", "result": "0.19 ± 0.11", "unit": "nM"}]}
{"compound": "c1ccc(CC(c2ccccc2)N2CCCCC2)cc1", "note": "(single isomer, unassigned) [Compound No. 3]", "values": [{"measurement": "Stereotyped Behavior ED₅₀ s.c.", "setting": "Male Sprague-Dawley rats", "result": ">40", "unit": "mg/kg"}]}
{"compound": "COc1cccc(C(Cc2ccccc2)N2CCCCC2)c1", "note": "(racemic) [Compound No. 26]", "values": [{"measurement": "Ki", "setting": "PCP receptors", "result": "100 ± 20", "unit": "nM"}]}
{"compound": "CC(C)(c1ccccc1)C(c1cccs1)N1CCCCC1", "note": "(racemic) [Compound No. 25]", "values": [{"measurement": "Ki", "setting": "PCP receptors", "result": "> 30000", "unit": "nM"}]}
{"compound": "c1ccc(CC(c2ccccc2)N2CCCCC2)cc1", "note": "(single isomer, unassigned) [Compound No. 4]", "values": [{"measurement": "ED50", "setting": "Male Sprague-Dawley rats; [4]", "result": 2.1, "unit": "mg/kg"}, {"measurement": "Stereotyped Behavior ED₅₀ i.c.v.", "setting": "Male Sprague-Dawley rats", "result": "120(100-140) nmoles/rat"}, {"measurement": "Stereotyped Behavior ED₅₀ s.c.", "setting": "Male Sprague-Dawley rats", "result": "0.78(0.60-1.0) mg/kg"}, {"measurement": "protection of neurons from sodium azide toxicity", "setting": "hippocampal neurons [2]; 100 µM compound", "result": "significant protection"}, {"measurement": "Optical Density", "setting": "hippocampal neurons [2]; Sodium azide + 100 µM compound, MTT, ± SEM, control 0.123, sodium azide alone 0.075", "result": "0.133 ± 0.01"}, {"measurement": "Optical Density", "setting": "hippocampal neurons [1]; Hypoxia + 1 µM compound", "result": "0.046 ± 0.01"}, {"measurement": "Maximum protection of neurons from hypoxic insult was obtained with", "setting": "hippocampal neurons [1]", "result": 1, "unit": "µM"}]}
{"compound": "CC(C)(c1ccccc1)C(c1ccccc1)N1CCCCC1", "note": "(racemic) [Compound No. 28]", "values": [{"measurement": "Ki", "setting": "PCP receptors", "result": "12000 ± 1000", "unit": "nM"}]}
{"compound": "COc1ccccc1C(Cc1ccccc1)N1CCCCC1", "note": "(racemic) [Compound No. 32]", "values": [{"measurement": "Ki", "setting": "PCP receptors", "result": "170 ± 10", "unit": "nM"}]}
{"compound": "c1ccc(C(N2CCCCC2)C2(c3ccccc3)CC2)cc1", "note": "(racemic) [Compound No. 23]", "values": [{"measurement": "Ki", "setting": "PCP receptors", "result": "> 30000", "unit": "nM"}]}
{"compound": "OC(c1ccccc1)C(c1ccccc1)N1CCCCC1", "note": "(racemic) [Compound No. 13]", "values": [{"measurement": "ED50", "setting": "Male Sprague-Dawley rats; [3]", "result": 11, "unit": "mg/kg"}]}
{"compound": "CC1CC(C)CN(C(Cc2ccccc2)c2ccccc2)C1", "note": "(racemic) [Compound No. 24]", "values": [{"measurement": "Ki", "setting": "PCP receptors", "result": "850 ± 40", "unit": "nM"}]}
{"compound": "C1=CCN(C(Cc2ccccc2)c2cccs2)CC1", "note": "(racemic) [Compound No. 15]", "values": [{"measurement": "ED50", "setting": "Male Sprague-Dawley rats; [3]", "result": 1.7, "unit": "mg/kg"}]}
{"compound": "c1ccc(C2(N3CCCCC3)CCCCC2)cc1", "note": "[PCP, Phencyclidine, reference compound]", "values": [{"measurement": "Stereotyped Behavior ED₅₀ i.c.v.", "setting": "Male Sprague-Dawley rats", "result": "150(120-170) nmoles/rat"}]}
{"compound": "CC(C)C(c1ccccc1)C(c1ccccc1)N1CCCCC1", "note": "(racemic) [Compound No. 12]", "values": [{"measurement": "ED50", "setting": "Male Sprague-Dawley rats; [3]", "result": "> 50", "unit": "mg/kg"}]}
{"compound": "c1ccc(CC(c2cccc3ccccc23)N2CCCCC2)cc1", "note": "(racemic) [Compound No. 33]", "values": [{"measurement": "Ki", "setting": "PCP receptors", "result": "6000 ± 1700", "unit": "nM"}]}
{"compound": "COc1ccc(C(Cc2ccccc2)N2CCCCC2)cc1", "note": "(racemic) [Compound No. 22]", "values": [{"measurement": "Ki", "setting": "PCP receptors", "result": "8100 ± 500", "unit": "nM"}]}
{"compound": "c1ccc(CC(c2ccccc2)N2CCCC2)cc1", "note": "(racemic) [Compound No. 20]", "values": [{"measurement": "ED50", "setting": "Male Sprague-Dawley rats; [3]", "result": 7.8, "unit": "mg/kg"}, {"measurement": "Ki", "setting": "PCP receptors", "result": "16000 ± 2600", "unit": "nM"}]}
{"compound": "C1=CCN(C(Cc2ccccc2)c2ccccc2)CC1", "note": "(racemic) [Compound No. 6]", "values": [{"measurement": "Stereotyped Behavior ED₅₀ i.c.v.", "setting": "Male Sprague-Dawley rats", "result": "100(81-120) nmoles/rat"}]}
{"compound": "c1ccc(CC(c2ccccc2)N2CCCCC2)cc1", "note": "(racemic) [Compound No. 1]", "values": [{"measurement": "ED50", "setting": "Male Sprague-Dawley rats; [4]", "result": 2, "unit": "mg/kg"}, {"measurement": "ED50", "setting": "Male Sprague-Dawley rats; [3]", "result": 2.9, "unit": "mg/kg"}, {"measurement": "cell loss in CA1", "setting": "Male Mongolian gerbils", "result": "significantly reduced"}]}
